Results from US10660877B2 (BRISTOL-MYERS SQUIBB COMPANY, priority 2016, dated 2020).
Where two headings read alike, the source gives them in different places.

Legend:
human TLR7 = human TLR7 (Homo sapiens (Human), UniProt Q9NYK1); experiment: TLR7 inhibition reporter assay (HEK-Blue cells, SEAP reporter, gardiquimod stimulation); type: cell-based
human TLR8 = human TLR8 (Homo sapiens (Human), UniProt Q9NR97); experiment: TLR8 inhibition reporter assay (HEK-Blue cells, SEAP reporter, R848 stimulation);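 note: compounds tested from 0.05 nM to 50 µM, 22 h at 37 °C, SEAP measured with HEK-Blue Detection, inhibition relative to agonist plus DMSO versus a known inhibitor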
human TLR9 = human TLR9 (Homo sapiens (Human), UniProt Q9NR96); experiment: TLR9 inhibition reporter assay (HEK-Blue cells, SEAP reporter, ODN2006 stimulation);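 note: compounds tested over 0.05 nM to 50 µM, 22 h incubation, inhibition taken as SEAP signal drop from agonist plus DMSO wells toward a known inhibitor control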
[1] = HEK-Blue cells overexpressing human TLR7, gardiquimod 7.5 μM
[2] = read-out: TLR8 IC50, HEK-Blue cells overexpressing human TLR8, R848 15.9 μM
[3] = read-out: TLR9 IC50, HEK-Blue cells overexpressing human TLR9, ODN2006 5 nM
[4] = HEK-Blue cells, gardiquimod 7.5 μM
[5] = read-out: TLR8 IC50, HEK-Blue cells, R848 15.9 μM
[6] = read-out: TLR9 IC50, HEK-Blue cells, ODN2006 5 nM

Sequence of human TLR9 (Q9NR96 26-1032): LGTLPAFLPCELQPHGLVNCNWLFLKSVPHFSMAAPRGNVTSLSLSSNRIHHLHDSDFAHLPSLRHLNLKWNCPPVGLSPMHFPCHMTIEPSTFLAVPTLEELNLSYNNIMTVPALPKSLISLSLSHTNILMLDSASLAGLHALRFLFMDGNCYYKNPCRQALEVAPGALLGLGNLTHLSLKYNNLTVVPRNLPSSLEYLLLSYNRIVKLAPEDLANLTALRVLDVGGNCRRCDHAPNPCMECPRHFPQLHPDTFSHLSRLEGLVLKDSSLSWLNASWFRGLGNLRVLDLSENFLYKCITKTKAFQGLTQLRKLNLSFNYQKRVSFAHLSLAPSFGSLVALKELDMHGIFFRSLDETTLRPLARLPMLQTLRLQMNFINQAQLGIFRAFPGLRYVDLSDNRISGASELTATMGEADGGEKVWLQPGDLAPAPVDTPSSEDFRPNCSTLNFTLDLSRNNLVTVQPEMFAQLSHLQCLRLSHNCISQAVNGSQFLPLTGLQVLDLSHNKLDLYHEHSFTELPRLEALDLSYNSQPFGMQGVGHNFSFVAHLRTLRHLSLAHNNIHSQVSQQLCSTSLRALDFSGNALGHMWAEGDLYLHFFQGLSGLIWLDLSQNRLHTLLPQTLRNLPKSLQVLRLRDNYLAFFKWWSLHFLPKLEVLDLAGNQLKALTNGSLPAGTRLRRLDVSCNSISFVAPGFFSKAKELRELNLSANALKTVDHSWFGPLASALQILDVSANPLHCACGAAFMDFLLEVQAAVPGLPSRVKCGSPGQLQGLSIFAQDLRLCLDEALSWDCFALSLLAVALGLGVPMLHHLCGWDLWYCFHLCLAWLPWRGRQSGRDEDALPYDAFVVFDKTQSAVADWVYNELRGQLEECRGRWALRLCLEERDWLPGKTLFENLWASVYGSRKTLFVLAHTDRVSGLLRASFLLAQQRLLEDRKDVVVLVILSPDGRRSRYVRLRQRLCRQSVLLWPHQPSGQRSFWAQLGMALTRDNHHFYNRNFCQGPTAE
Sequence of human TLR7 (Q9NYK1 27-1049): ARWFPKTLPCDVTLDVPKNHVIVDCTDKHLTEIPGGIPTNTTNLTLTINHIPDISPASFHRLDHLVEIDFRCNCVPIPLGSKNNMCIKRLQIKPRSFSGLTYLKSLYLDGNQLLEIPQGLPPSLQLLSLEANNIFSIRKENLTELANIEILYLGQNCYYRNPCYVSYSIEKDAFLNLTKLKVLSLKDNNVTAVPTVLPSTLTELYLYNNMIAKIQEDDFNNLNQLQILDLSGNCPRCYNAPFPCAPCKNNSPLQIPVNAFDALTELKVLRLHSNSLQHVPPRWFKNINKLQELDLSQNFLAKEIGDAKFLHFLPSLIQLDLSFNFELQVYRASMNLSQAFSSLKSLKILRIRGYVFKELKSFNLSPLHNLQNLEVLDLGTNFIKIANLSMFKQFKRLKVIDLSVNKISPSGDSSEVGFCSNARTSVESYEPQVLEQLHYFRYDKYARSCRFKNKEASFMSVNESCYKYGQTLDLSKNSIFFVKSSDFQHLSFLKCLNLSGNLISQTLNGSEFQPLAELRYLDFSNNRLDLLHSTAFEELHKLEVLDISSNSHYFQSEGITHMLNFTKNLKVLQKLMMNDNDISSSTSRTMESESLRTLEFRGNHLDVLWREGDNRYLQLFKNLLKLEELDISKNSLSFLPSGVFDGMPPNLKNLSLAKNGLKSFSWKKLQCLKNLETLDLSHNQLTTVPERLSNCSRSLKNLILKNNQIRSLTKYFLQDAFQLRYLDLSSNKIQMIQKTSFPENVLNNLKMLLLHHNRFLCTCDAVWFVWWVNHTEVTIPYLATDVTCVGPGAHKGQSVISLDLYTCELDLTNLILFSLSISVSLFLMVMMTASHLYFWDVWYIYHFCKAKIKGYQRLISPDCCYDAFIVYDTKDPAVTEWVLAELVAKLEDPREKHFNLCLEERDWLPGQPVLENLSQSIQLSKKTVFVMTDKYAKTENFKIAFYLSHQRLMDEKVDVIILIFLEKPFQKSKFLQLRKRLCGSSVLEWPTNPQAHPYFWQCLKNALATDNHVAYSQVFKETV
Sequence of human TLR8 (Q9NR97 27-1041): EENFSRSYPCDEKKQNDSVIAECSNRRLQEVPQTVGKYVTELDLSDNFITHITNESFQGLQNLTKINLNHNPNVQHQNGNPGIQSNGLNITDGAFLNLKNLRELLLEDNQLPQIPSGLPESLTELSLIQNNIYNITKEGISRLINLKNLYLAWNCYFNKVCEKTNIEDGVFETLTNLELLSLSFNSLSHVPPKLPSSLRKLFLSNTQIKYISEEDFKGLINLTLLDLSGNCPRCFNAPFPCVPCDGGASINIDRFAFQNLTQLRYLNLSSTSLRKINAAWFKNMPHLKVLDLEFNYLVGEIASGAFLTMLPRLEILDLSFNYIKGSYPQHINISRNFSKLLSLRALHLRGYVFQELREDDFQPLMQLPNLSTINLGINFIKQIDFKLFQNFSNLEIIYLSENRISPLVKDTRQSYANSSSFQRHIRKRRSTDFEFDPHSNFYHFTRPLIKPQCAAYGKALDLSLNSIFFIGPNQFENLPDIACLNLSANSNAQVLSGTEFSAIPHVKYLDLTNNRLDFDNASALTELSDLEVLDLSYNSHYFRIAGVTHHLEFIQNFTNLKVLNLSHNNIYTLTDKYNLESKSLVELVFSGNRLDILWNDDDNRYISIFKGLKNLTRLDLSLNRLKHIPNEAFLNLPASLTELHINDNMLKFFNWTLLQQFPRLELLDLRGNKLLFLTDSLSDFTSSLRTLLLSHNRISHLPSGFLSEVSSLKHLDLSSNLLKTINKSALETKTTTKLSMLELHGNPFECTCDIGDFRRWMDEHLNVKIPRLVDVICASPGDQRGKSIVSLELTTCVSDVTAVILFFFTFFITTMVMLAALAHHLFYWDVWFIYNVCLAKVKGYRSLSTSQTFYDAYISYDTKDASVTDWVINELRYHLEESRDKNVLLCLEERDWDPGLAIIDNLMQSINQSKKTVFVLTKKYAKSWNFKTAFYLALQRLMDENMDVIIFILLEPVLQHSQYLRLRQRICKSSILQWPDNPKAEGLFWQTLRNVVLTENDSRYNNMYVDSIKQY

Compound	IC50 (human TLR7; [1])	IC50 (human TLR8; [2])	IC50 (human TLR9; [3])	IC50 (human TLR7; [4])	IC50 (human TLR8; [5])	IC50 (human TLR9; [6])
Cc1cc(-c2[nH]c3ccc(C4CCNCC4)cc3c2C(C)C)c(C#N)c(NCC2CC2)n1 [Example 32, 2-((cyclopropylmethyl)amino)-4-(3-isopropyl-5-(piperidin-4-yl)-1H-indol-2-yl)-6-methylnicotinonitrile]	4070 nM	3680 nM	3990 nM	–	–	–
Cc1cc(-c2[nH]c3ccc(C4CCN(C(=O)CNC[C@@H](O)CO)CC4)cc3c2C(C)C)ccn1 [Example 511, (R)-2-((2,3-dihydroxypropyl)amino)-1-(4-(3-isopropyl-2-(2-methylpyridin-4-yl)-1H-indol-5-yl)piperidin-1-yl)ethan-1-one]	32.6 nM	31.3 nM	1460 nM	–	–	–
CCc1c(-c2ccncc2)[nH]c2ccc(C3CCN(C4CCN(CC(C)C)CC4)CC3)cc12 [Example 779, 3-ethyl-5-(1′-isobutyl-[1,4′-bipiperidin]-4-yl)-2-(pyridin-4-yl)-1H-indole]	2110 nM	86.6 nM	159 nM	–	–	–
Cc1cc(-c2[nH]c3ccc(C4CCN(CC(F)(F)F)CC4)cc3c2C(C)C)cc(C)n1 [Example 310, 2-(2,6-dimethylpyridin-4-yl)-3-isopropyl-5-(1-(2,2,2-trifluoroethyl)piperidin-4-yl)-1H-indole]	230 nM	895 nM	29900 nM	–	–	–
COc1cc(-c2[nH]c3ccc(C4CCN(C5CCN(C6CCCC6)CC5)CC4)cc3c2C(C)C)ccn1 [Example 802, 5-(1′-cyclopentyl-[1,4′-bipiperidin]-4-yl)-3-isopropyl-2-(2-methoxypyridin-4-yl)-1H-indole]	389 nM	99.3 nM	487 nM	–	–	–
COc1cc(-c2[nH]c3ccc(C4CCN(C5CCNCC5)CC4)cc3c2C(C)C)ccn1 [Example 800, 5-([1,4′-bipiperidin]-4-yl)-3-isopropyl-2-(2-methoxypyridin-4-yl)-1H-indole]	167 nM	185 nM	729 nM	–	–	–
CCc1c(-c2ccnc(OC)c2)[nH]c2ccc(C3CCN(C4C[C@H]5CC[C@@H](C4)N5C)CC3)cc12 (stereo partly drawn) [Example 791, 3-ethyl-2-(2-methoxypyridin-4-yl)-5-(1-((1R,3s,5S)-8-methyl-8-azabicyclo[3.2.1]octan-3-yl)piperidin-4-yl)-1H-indole]	666 nM	158 nM	1600 nM	–	–	–
Cc1cc(-c2[nH]c3ccc(C4CCN(C(=O)C5CNC(=O)C5)CC4)cc3c2C(C)C)ccn1 (stereo not drawn) [Example 612, 4-(4-(3-isopropyl-2-(2-methylpyridin-4-yl)-1H-indol-5-yl)piperidine-1-carbonyl)pyrrolidin-2-one]	73 nM	162 nM	16700 nM	–	–	–
Cc1cc(-c2[nH]c3ccc(C4CCN(S(=O)(=O)c5ccc(F)cc5)CC4)cc3c2C(C)C)ccn1 [Example 551, 5-(1-((4-fluorophenyl)sulfonyl)piperidin-4-yl)-3-isopropyl-2-(2-methylpyridin-4-yl)-1H-indole]	486 nM	1030 nM	> 50000 nM	–	–	–
Cc1cc(-c2[nH]c3ccc(C4CCN(CC(F)(F)F)CC4)cc3c2C(C)C)ccn1 [Example 658, 3-isopropyl-2-(2-methylpyridin-4-yl)-5-(1-(2,2,2-trifluoroethyl)piperidin-4-yl)-1H-indole]	434 nM	645 nM	7290 nM	–	–	–
Cc1cc(-c2[nH]c3ccc(C4CCN(Cc5cnc[nH]5)CC4)cc3c2C(C)C)c(N)cn1 [Example 823, 4-(5-(1-((1H-imidazol-5-yl)methyl)piperidin-4-yl)-3-isopropyl-1H-indol-2-yl)-6-methylpyridin-3-amine]	–	–	–	36.2 nM	7.6 nM	400 nM
CC(C)c1c(-c2ccnc(C(=O)Nc3nccs3)c2)[nH]c2ccc(C3CCNCC3)cc12 [Example 477, 4-(3-isopropyl-5-(piperidin-4-yl)-1H-indol-2-yl)-N-(thiazol-2-yl) picolinamide]	3080 nM	1110 nM	2190 nM	–	–	–
Cc1cc(-c2[nH]c3ccc(C4CCN(C(=O)CS(C)(=O)=O)CC4)cc3c2C(C)C)ccn1 [Example 608, 1-(4-(3-isopropyl-2-(2-methylpyridin-4-yl)-1H-indol-5-yl)piperidin-1-yl)-2-(methylsulfonyl)ethan-1-one]	51.4 nM	184 nM	1850 nM	–	–	–
Cc1cc(-c2[nH]c3ccc(C4CCN(C(=O)C(=O)N5CCN(C)CC5)CC4)cc3c2C(C)C)cc(C)n1 [Example 856, 1-(4-(2-(2,6-dimethylpyridin-4-yl)-3-isopropyl-1H-indol-5-yl)piperidin-1-yl)-2-(4-methylpiperazin-1-yl)ethane-1,2-dione]	–	–	–	2.9 nM	30.6 nM	832 nM

Other lines, results leading:

IC50 (human TLR7; [1])	IC50 (human TLR8; [2])	IC50 (human TLR9; [3])	IC50 (human TLR7; [4])	IC50 (human TLR8; [5])	IC50 (human TLR9; [6])	Compound
1.5 nM	4 nM	2980 nM	–	–	–	CC(C)c1c(-c2ccnc(Cl)c2F)[nH]c2ccc(C3CCNCC3)cc12 [Example 21, 2-(2-chloro-3-fluoropyridin-4-yl)-3-isopropyl-5-(piperidin-4-yl)-1H-indole]
10.7 nM	150 nM	41400 nM	–	–	–	Cc1cc(-c2[nH]c3ccc(C4CCN(C(=O)C[C@H](C)O)CC4)cc3c2C(C)C)cc(C)n1 [Example 109, (S)-1-(4-(2-(2,6-dimethylpyridin-4-yl)-3-isopropyl-1H-indol-5-yl)piperidin-1-yl)-3-hydroxybutan-1-one]
3.4 nM	6.7 nM	1690 nM	–	–	–	Cc1cc(-c2[nH]c3ccc(C4CCN(CCC(F)(F)F)CC4)cc3c2C(C)C)cc(C)n1 [Example 677, 2-(2,6-dimethylpyridin-4-yl)-3-isopropyl-5-(1-(3,3,3-trifluoropropyl)piperidin-4-yl)-1H-indole]
2.8 nM	13.3 nM	869 nM	–	–	–	Cc1cc(-c2[nH]c3ccc(C4CCN(C(=O)CNCC5CC5)CC4)cc3c2C(C)C)cc(C)n1 [Example 339, 2-((cyclopropylmethyl)amino)-1-(4-(2-(2,6-dimethylpyridin-4-yl)-3-isopropyl-1H-indol-5-yl)piperidin-1-yl)ethan-1-one]
3.7 nM	3.6 nM	1220 nM	–	–	–	Cc1cc(-c2[nH]c3ccc(C4CCN(C5CCS(=O)(=O)CC5)CC4)cc3c2C(C)C)cc(C)n1 [Example 459, 4-(4-(2-(2,6-dimethylpyridin-4-yl)-3-isopropyl-1H-indol-5-yl)piperidin-1-yl)tetrahydro-2H-thiopyran 1,1-dioxide]
17.4 nM	47.9 nM	752 nM	–	–	–	Cc1cc(-c2[nH]c3ccc(C4CCN(C(=O)CNCCC(C)(C)C)CC4)cc3c2C(C)C)cc(C)n1 [Example 347, 2-((3,3-dimethylbutyl)amino)-1-(4-(2-(2,6-dimethylpyridin-4-yl)-3-isopropyl-1H-indol-5-yl)piperidin-1-yl)ethan-1-one]
11 nM	1.9 nM	3510 nM	–	–	–	Cc1cc(-c2[nH]c3ccc(C4CCN(Cc5c[nH]nn5)CC4)cc3c2C(C)C)c(C)cn1 [Example 690, 5-(1-((1H-1,2,3-triazol-4-yl)methyl)piperidin-4-yl)-2-(2,5-dimethylpyridin-4-yl)-3-isopropyl-1H-indole]
11.5 nM	22.2 nM	110 nM	–	–	–	CNCCN1CCC(c2ccc3[nH]c(-c4cc(C)nc(C)c4)c(CC(F)F)c3c2)CC1 [Example 541, 2-(4-(3-(2,2-difluoroethyl)-2-(2,6-dimethylpyridin-4-yl)-1H-indol-5-yl)piperidin-1-yl)-N-methylethan-1-amine]
19.7 nM	108 nM	9450 nM	–	–	–	Cc1cc(-c2[nH]c3ccc(C4CCN(C(=O)C5(C#N)CC5)CC4)cc3c2C(C)C)ccn1 [Example 611, 1-(4-(3-isopropyl-2-(2-methylpyridin-4-yl)-1H-indol-5-yl)piperidine-1-carbonyl)cyclopropane-1-carbonitrile]
8.6 nM	80.8 nM	27700 nM	–	–	–	Cc1cc(-c2[nH]c3ccc(C4CCN(C(=O)C5CCCO5)CC4)cc3c2C(C)C)cc(C)n1 (stereo not drawn) [Example 103, (4-(2-(2,6-dimethylpyridin-4-yl)-3-isopropyl-1H-indol-5-yl)piperidin-1-yl)(tetrahydrofuran-2-yl)methanone]
23.9 nM	5.2 nM	638 nM	–	–	–	Cc1cc(-c2[nH]c3ccc(C4CCN(C5CCOC(C)(C)C5)CC4)cc3c2C(C)C)ccn1 (stereo not drawn) [Example 719, 5-(1-(2,2-dimethyltetrahydro-2H-pyran-4-yl)piperidin-4-yl)-3-isopropyl-2-(2-methylpyridin-4-yl)-1H-indole]
6.2 nM	99.9 nM	15800 nM	–	–	–	Cc1cc(-c2[nH]c3ccc(C4CCN(C(=O)c5cccnc5)CC4)cc3c2C(C)C)cc(C)n1 [Example 112, (4-(2-(2,6-dimethylpyridin-4-yl)-3-isopropyl-1H-indol-5-yl)piperidin-1-yl)(pyridin-3-yl)methanone]
8.3 nM	17.7 nM	3360 nM	–	–	–	Cc1cc(-c2[nH]c3ccc(C4CCN(Cc5ncon5)CC4)cc3c2C(C)C)cc(C)n1 [Example 463, 3-((4-(2-(2,6-dimethylpyridin-4-yl)-3-isopropyl-1H-indol-5-yl)piperidin-1-yl)methyl)-1,2,4-oxadiazole]
20.5 nM	114 nM	36600 nM	–	–	–	Cc1cc(-c2[nH]c3ccc(C4CCN(C(=O)c5cccn(C6CC6)c5=O)CC4)cc3c2C(C)C)cc(C)n1 [Example 123, 1-cyclopropyl-3-(4-(2-(2,6-dimethylpyridin-4-yl)-3-isopropyl-1H-indol-5-yl)piperidine-1-carbonyl)pyridin-2(1H)-one]
